Measured values published in ChEMBL document CHEMBL4627257, “Targeting the DNA damage response (DDR) by natural compounds” (Bioorg Med Chem, 2020).
Each block holds one compound with its values, some of them ahead of it. Calls of active or inactive are those of the source. The calls are words filed in the database; no cut-off is given here.

How the values were obtained:
SU.86.86 [1] = assay: Induction of DNA damage in human SU8686 cells assessed as tail DNA formation at IC50 in presence of 5 uM cisplatin by alkaline Comet assay; assay type: functional, cell-based
SU.86.86 [2] = assay: Induction of DNA damage in human SU8686 cells assessed as increase gammaH2AX protein level at IC50 for 24 hrs in presence of 5 uM cisplatin by western blot analysis; assay type: functional, cell-based
SU.86.86 [3] = assay: Induction of DNA damage in human SU8686 cells assessed as tail DNA formation at IC50 by alkaline Comet assay; assay type: functional, cell-based
SU.86.86 [4] = assay: Induction of DNA damage in human SU8686 cells assessed as increase in gammaH2AX phosphorylation at […] at cytotoxic IC50 incubated for 24 hrs by fluorometry method; assay type: functional
SU.86.86 [5] = assay: Induction of DNA damage in human SU8686 cells assessed as increase in gammaH2AX nuclear foci under basal condition at IC50 by fluorometry method; assay type: functional, cell-based
SU.86.86 [6] = assay: Induction of DNA damage in human SU8686 cells assessed as increase in gammaH2AX phosphorylation at […] at cytotoxic IC50 in presence of 5 uM cisplatin by fluorometry method; assay type: functional
SU.86.86 [7] = assay: Induction of DNA damage in human SU8686 cells assessed as increase gammaH2AX protein level at IC50 for 24 hrs by western blot analysis; assay type: functional, cell-based
[8] = Drug uptake in human SU8686 cells assessed as increase in doxorubicin uptake by flow cytometry analysis; assay type: ADME, cell-based; details: su.86.86
SU.86.86 [9] = assay: Induction of DNA damage in human SU8686 cells assessed as increase gammaH2AX protein level at IC50 for 24 hrs in presence of 0.3 uM doxorubicin by western blot analysis; assay type: functional, cell-based
SU.86.86 [10] = assay: Induction of DNA damage in human SU8686 cells assessed as increase in gammaH2AX phosphorylation at […] at cytotoxic IC50 in presence of 0.3 uM doxorubicin by fluorometry method; assay type: functional
BXPC-3 = assay: Cytotoxicity against human BxPC3 cells assessed as cell viability after 72 hrs incubated with resazurin sodium salt by Alamar blue assay; assay type: functional
SU.86.86 [11] = assay: Cytotoxicity against human SU8686 cells assessed as cell viability after 72 hrs incubated with resazurin sodium salt by Alamar blue assay; assay type: functional

Compound: CC(C)[C@@H]1OC(=O)[C@@H](Cc2ccc(O)cc2)N(C)C(=O)[C@H](C(C)C)OC(=O)[C@@H](Cc2ccccc2)N(C)C(=O)[C@H](C(C)C)OC(=O)[C@@H](Cc2ccccc2)N(C)C1=O
- Activity (SU.86.86 [1]): Active
- Activity (SU.86.86 [2]): Active
- Activity (SU.86.86 [3]): Active
- Activity (SU.86.86 [4]): >30%

- Drug uptake [8]: Active
Compound: CC1=CCC[C@H]2[C@@](C)(CC3=C(O)C(=O)C=C(NCCc4ccccc4)C3=O)[C@@H](C)CC[C@@]12C
- Activity (SU.86.86 [5]): Active
- Activity (SU.86.86 [1]): Active
- Activity (SU.86.86 [6]): >20%
- Activity (SU.86.86 [3]): Active
- Activity (SU.86.86 [4]): >30%
- Activity (SU.86.86 [7]): Active

Compound: CCCCC/C=C/C(=O)[C@H]1C(=O)O[C@@]2(C)C(=O)C(C=O)=C3C=C(C)OC=C3[C@H]12
- Activity (SU.86.86 [2]): Active
- Activity (SU.86.86 [3]): Active
- Activity (SU.86.86 [4]): >30%

Compound: C=C1CCC[C@H]2[C@](C)(CC3=C(O)C(=O)C=C(OC)C3=O)[C@@H](C)CC[C@@]12C
- Activity (SU.86.86 [5]): Active
- Activity (SU.86.86 [6]): >20%
- Activity (SU.86.86 [2]): Active
- Activity (SU.86.86 [3]): Active
- Activity (SU.86.86 [9]): Active
- Activity (SU.86.86 [4]): >30%
- Activity (SU.86.86 [7]): Active
- Activity (SU.86.86 [10]): >20%

Compound: CC(C)[C@H]1OC(=O)[C@H](Cc2ccccc2)N(C)C(=O)[C@@H](C(C)C)OC(=O)[C@H](Cc2ccccc2)N(C)C(=O)[C@@H](C(C)C)OC(=O)[C@H](Cc2ccccc2)N(C)C1=O
- Activity (SU.86.86 [5]): Active
- Activity (SU.86.86 [2]): Active
- Activity (SU.86.86 [3]): Active

Compound: COC(=O)C[C@@H]1Cc2cc3c(-c4c(OC)cc(O)c5c(O)c6c(cc45)C[C@@H](CC(=O)OC)OC6=O)c(OC)cc(O)c3c(O)c2C(=O)O1
- Activity (SU.86.86 [5]): Active
- Activity (SU.86.86 [2]): Active
- Activity (SU.86.86 [3]): Active
- Activity (SU.86.86 [9]): Active

Compound: COC(=O)[C@@]12Oc3ccc(-c4ccc5c(c4O)C(=O)C4=C(O)C[C@H](C)[C@H](O)[C@]4(C(=O)OC)O5)c(O)c3C(=O)C1=C(O)C[C@H](C)[C@H]2O
- Activity (SU.86.86 [5]): Active
- Activity (SU.86.86 [6]): >20%
- Activity (SU.86.86 [2]): Active
- Activity (SU.86.86 [3]): Active
- Activity (BXPC-3): 2.5 µM
- Activity (SU.86.86 [4]): >30%
- Activity (SU.86.86 [11]): 3 µM
- Activity (SU.86.86 [10]): >20%
